US9340577B2, “HLA binding motifs and peptides and their uses” (priority 1992, dated 2016)
pIC50: −log10 of the molar value. No end group written: not given here.

Each molecule was assayed against DR1 (DRB1*0101) (Homo sapiens, UniProt P01903+P01911, A100R/D57E/F55L/F60I/F76Y/I96L/L162R/M171V/P40L/Q125E/R42F/V115G/Y59C) (assay: biochemical).
Type: binding

Molecule	pIC50
CC(C)[C@H](NC(=O)[C@@H]1CCCN1C(=O)[C@H](CCCCN)NC(=O)[C@H](CO)NC(=O)[C@H](CC(N)=O)NC(=O)[C@H](CC(N)=O)NC(=O)[C@H](CO)NC(=O)[C@H](CO)NC(=O)[C@H](Cc1c[nH]c2ccccc12)NC(=O)[C@H](CO)NC(=O)[C@@H]1CCCN1C(=O)[C@@H](N)CCCCN)C(=O)N[C@@H](CCC(=O)O)C(=O)N[C@@H](CC(=O)O)C(=O)N[C@@H](CCCCN)C(=O)O [Peptide 9014.0042]	7.54
CC(C)[C@H](NC(=O)[C@@H]1CCCN1C(=O)[C@H](CCCCN)NC(=O)[C@H](CO)NC(=O)[C@H](CC(N)=O)NC(=O)[C@H](CC(N)=O)NC(=O)[C@H](CO)NC(=O)[C@H](CO)NC(=O)[C@H](Cc1ccc(O)cc1)NC(=O)[C@H](CO)NC(=O)[C@@H]1CCCN1C(=O)[C@@H](N)CCCCN)C(=O)N[C@@H](CCC(=O)O)C(=O)N[C@@H](CC(=O)O)C(=O)N[C@@H](CCCCN)C(=O)O [Peptide 9014.0043]	7.41
CC[C@H](C)[C@H](NC(=O)[C@@H](NC(=O)[C@H](CCCCN)NC(=O)[C@H](Cc1ccccc1)NC(=O)[C@@H](NC(=O)[C@@H](NC(=O)[C@@H](N)CCCNC(=N)N)[C@@H](C)O)[C@@H](C)O)[C@@H](C)O)C(=O)N[C@H](C(=O)N[C@H](C(=O)N[C@@H](CO)C(=O)N[C@@H](C)C(=O)N[C@@H](CCC(=O)O)C(=O)N[C@@H](CC(C)C)C(=O)N1CCC[C@H]1C(=O)N[C@@H](CCCCN)C(=O)O)C(C)C)[C@@H](C)O [Peptide 9014.0054]	7.26
CC[C@H](C)[C@H](NC(=O)[C@@H](NC(=O)[C@H](CCCCN)NC(=O)[C@H](CC(C)C)NC(=O)[C@@H](NC(=O)[C@@H](NC(=O)[C@@H](N)CCCNC(=N)N)[C@@H](C)O)[C@@H](C)O)[C@@H](C)O)C(=O)N[C@H](C(=O)N[C@H](C(=O)N[C@@H](CO)C(=O)N[C@@H](C)C(=O)N[C@@H](CCC(=O)O)C(=O)N[C@@H](CC(C)C)C(=O)N1CCC[C@H]1C(=O)N[C@@H](CCCCN)C(=O)O)C(C)C)[C@@H](C)O [Peptide 9014.0058]	6.51
CWMIDSEARPRFREL [Peptide 9014.0219]	7.26
CWMIDSEHRPRFREL [Peptide 9014.0221]	6.06
CWMIDSELRPRFREL [Peptide 9014.0223]	6.36
CWMIDSESRPRFREL [Peptide 9014.0225]	6.34
CWMIDSETRPRFREL [Peptide 9014.0226]	6.43
CWMIDSEVRPRFREL [Peptide 9014.0227]	6.12
DMKLRLAASPETHLD [Peptide 9014.0115]	7.33
DMKLRLIASPETHLD [Peptide 9014.0118]	7.92
DMKLRLLASPETHLD [Peptide 9014.0119]	7.92
DMKLRLNASPETHLD [Peptide 9014.0120]	6.04
DMKLRLPAIPETHLD [Peptide 9014.0135]	6.12
DMKLRLSASPETHLD [Peptide 9014.0121]	6.08
DMKLRLVASPETHLD [Peptide 9014.0123]	7.55
DMKYRLPASPETHLD [Peptide 9014.0131]	6.11
ETEAVEPLTPSGAMP [Peptide 9014.0141]	7.29
ETEFVEPLTPSGAMP [Peptide 9014.0142]	7.60
ETEHVEPLTPSGAMP [Peptide 9014.0143]	7.21
ETEIVEPLTPSGAMP [Peptide 9014.0144]	6.32
ETEKVEPLTPSGAMP [Peptide 9014.0145]	7.68

Molecule	pIC50
ETELVEPLAPSGAMP [Peptide 9014.0149]	7.35
ETELVEPLFPSGAMP [Peptide 9014.0150]	6.52
ETELVEPLHPSGAMP [Peptide 9014.0151]	7.51
ETELVEPLIPSGAMP [Peptide 9014.0152]	7.26
ETELVEPLLPSGAMP [Peptide 9014.0153]	6.47
ETELVEPLSPSGAMP [Peptide 9014.0155]	6.93
ETELVEPLVPSGAMP [Peptide 9014.0156]	7.07
ETEVVEPLTPSGAMP [Peptide 9014.0146]	7.40
ETEWVEPLTPSGAMP [Peptide 9014.0147]	7.62
ETEYVEPLTPSGAMP [Peptide 9014.0148]	7.64
GTDMKLRLAASPETH [Peptide 9014.0096]	7.66
GTDMKLRLFASPETH [Peptide 9014.0097]	6.77
GTDMKLRLHASPETH [Peptide 9014.0098]	6.08
GTDMKLRLIASPETH [Peptide 9014.0099]	7.74
GTDMKLRLLASPETH [Peptide 9014.0100]	7.89
GTDMKLRLNASPETH [Peptide 9014.0101]	6.65
GTDMKLRLSASPETH [Peptide 9014.0102]	7.19
GTDMKLRLTASPETH [Peptide 9014.0103]	7.35
GTDMKLRLVASPETH [Peptide 9014.0104]	7.77
GTDWKLRLPASPETH [Peptide 9014.0094]	6.10
GTDYKLRLPASPETH [Peptide 9014.0095]	6.23
ITDFGLARALDIDET [Peptide 9014.0183]	7.60
ITDFGLARSLDIDET [Peptide 9014.0188]	7.16

Molecule	pIC50
ITDIGLARLLDIDET [Peptide 9014.0177]	6.04
KEILDEAYLMAGVGS [Peptide 9014.0170]	6.01
KFFGSLAFLPESFDGDPA [Peptide 9014.0231]	6.65
KHFGSLAFLPESFDGDPA [Peptide 9014.0232]	6.20
KIFGSLAFLPESHDGDPA [9014,0255]	6.09
KIFGSLAHLPESFDGDPA [Peptide 9014.0247]	6.02
KIFGSLAILPESFDGDPA [Peptide 9014.0248]	6.42
KIFGSLAVLPESFDGDPA [Peptide 9014.0251]	6.64
KIFGSLAWLPESFDGDPA [Peptide 9014.0252]	6.92
KIFGSLAYLPESFDGDPA [Peptide 9014.0253]	6.20
KIFGSLLFLPESFDGDPA [Peptide 9014.0241]	6.36
KIFGSLNFLPESFDGDPA [Peptide 9014.0242]	6.65
KIFGSLTFLPESFDGDPA [Peptide 9014.0244]	6.63
KLFGSLAFLPESFDGDPA [Peptide 9014.0234]	6.10
KVFGSLAFLPESFDGDPA [Peptide 9014.0235]	6.17
KWFGSLAFLPESFDGDPA [Peptide 9014.0236]	6.35
KYFGSLAFLPESFDGDPA [Peptide 9014.0237]	6.02
NASLLIQNSIQNDTG [Peptide 9014.0015]	7.00
QNFIQNDTGFYTLHV [Peptide 9014.0071]	6.17
QNYIQNDTGFYTLHV [Peptide 9014.0077]	6.34
RTTVKTITLSAELPK [Peptide 9014.0065]	6.14

Each molecule was assayed against A2.1 HLA molecules (Homo sapiens, UniProt P04439, D140Y/D185E/D98H/E176V/E277Q/G131W/G231S/I119V/I121R/I166T/I218V/L300P/L318F/N151K/N90K/P208A/P217A/Q86G/Q94H/R138H/R169H/T345S) (assay: not given).
Type: binding
Parameters: A*0201 / A2.1 Binding / A2 Bind. / A2 / A2.1 (binding capacity): scale not given here

Molecule	A2.1 Binding	A2.1 (binding capacity)	A2 Bind.
1.0092 (TLTCGFACL) [Peptide 1.0092]	0.0004	–	–
1.0187 (HLLVGSSBL) [Peptide 1.0187]	0.0018	–	–
1.0500 (IMAKNBVFCV) [Peptide 1.0500]	–	0.0088	–
1.0689 (VLKDAIKDLV) [Peptide 1.0689]	–	0.0002	–
1.0876 (FLCILLLCL) [Peptide 1.0876]	0.0007	–	–
ALASCMGLI	–	–	0.0110
